Assay results as given in patent publication US20210115104A1, “AMYLIN ANALOGUES” (Zealand Pharma A/S, priority 2015, published 2021).
pEC50: −log10 of the molar value. *1 amine or outer side, *2 acyl side, *3 side chain or, on linkers, in order; H or OH if unused. Where a SMILES comes first, the peptide text is derived from it. Bridges are numbered along the chain shown (N, C = ends). [ ]: non-standard residue; d: D form. The star is where a group is joined. C20 diacid = O=C(O)CCCCCCCCCCCCCCCCCCC(=O)*; γGlu = O=C(O)[C@H](CCC(=O)[*:2])N[*:1]; Hyp = O=C(O)[C@@H]1C[C@@H](O)CN1; NMeI = CC[C@H](C)[C@H](NC)C(=O)O; Sar = CNCC(=O)O

How the values were obtained:
[1] = Assessment of physical stability (Thioflavin T fibrillation); format: physicochemical; set-up: key: FND = fibrillation not detected; FD = fibrillation detected; conditions: 1 mg/ml, 40° C., ThT; for Fibrillation pH 4.0 (Ac): 50 mM acetate buffer pH 4.0, 96 hours; for Fibrillation pH 7.0 (His): 50 mM histidine buffer pH 7.0, 96 hours; for Fibrillation pH 7.0 (Phos.): 50 mM phosphate buffer pH 7.0, 96 hours
Description: Solutions containing (i) 1 mg/ml of test peptide, 40 μM ThT and 50 mM phosphate (Ph) buffer (pH 7.0), (ii) 1 mg/ml of test peptide, 40 μM ThT and 50 mM histidine (His) buffer (pH 7.0), and (iii) 1 mg/ml of test peptide, 40 μM ThT and 50 mM acetate (Ac) buffer (pH 4.0), were loaded in a 96-well black fluorescence plate (clear bottom) in triplicate. Data were collected at fixed intervals of 10 min, each preceded by 300 s of automixing (agitation), over a period of 96 hours at 40° C. Physical stability, expressed as lag-time of fibril formation (in hours), was defined as the intersection between two linear regressions representing the initial stable phase and the growth phase.

[2] = Assessment of chemical stability (RP-HPLC normalized purity); format: physicochemical; conditions: 7 days, 40° C., Table 1
Description: Samples of each test peptide were dissolved in MilliQ™ water, and the pH of the solution was adjusted to pH 4, pH 6, pH 7.5 or pH 9, respectively, using either HCl or NaOH. The final peptide concentration was 0.2 mg/ml. Samples were placed in glass vials and incubated at 40° C. The samples were analyzed by RP-HPLC on a C8 column with gradient elution using an ammonium formate/water eluent system, or on a C18 column with gradient elution using a trifluoroacetic acid/water eluent system. The area-percentage (area-%) of the main peak after incubation time T=t (relative to time T=0) was determined by UV spectroscopy at 220 nm.
The purity was first determined as follows:
Purity(area-%)=(area of main peak/total area of all peaks)×100.
The purity was then normalized between time points by setting purity at time 0 (T=0) to 100 for each pH value for a given peptide, as follows:
Normalised area-% at time t (T=t)=[area-%(T=t)/area-%(T=0)]×100.
The normalized purity values in Table 1 were determined after 7 days of incubation.
The chemical stability assessment described in Example 6 was repeated for four pairs of compounds, each differing only by the presence or absence of an Asn-Asn (N—N) doublet at positions 21 and 22.

[3] = biological target: T1, human calcitonin receptor (hCTR2) (Homo sapiens, UniProt P30988); assay: hCTR2 cAMP assay (AlphaScreen) in COS7 cells; format: cell-based; conditions: cAMP induction, COS7 cells expressing hCTR2; Table 1; read-out: hCTR2 EC50
T1 construct: expressed in transfected cells
T1 sequence (P30988 25-474): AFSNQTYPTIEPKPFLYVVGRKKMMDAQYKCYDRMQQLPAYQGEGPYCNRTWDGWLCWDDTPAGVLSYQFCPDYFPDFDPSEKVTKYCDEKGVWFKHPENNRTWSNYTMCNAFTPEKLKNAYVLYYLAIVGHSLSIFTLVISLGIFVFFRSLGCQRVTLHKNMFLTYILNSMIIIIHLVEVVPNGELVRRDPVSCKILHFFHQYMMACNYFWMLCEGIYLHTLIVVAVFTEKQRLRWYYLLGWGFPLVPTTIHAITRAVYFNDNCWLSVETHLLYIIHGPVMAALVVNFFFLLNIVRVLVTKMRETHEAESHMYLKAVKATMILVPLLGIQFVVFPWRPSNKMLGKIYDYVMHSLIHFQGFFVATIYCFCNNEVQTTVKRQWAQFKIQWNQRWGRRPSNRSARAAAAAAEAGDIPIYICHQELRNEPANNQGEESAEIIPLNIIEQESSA
Source text: The cell line COS7, originating from African Green Monkey kidney fibroblast cells, was used for establishment of the stable cell lines described below. The COS7 cellular background was used due to it being RAMP naïve, and as such it provides the best available system for testing of the monomeric hCTR and different heterodimeric amylin receptor subtypes functionally generated by introduction of the individual RAMPs.
A cell line expressing the human calcitonin receptor (hCTR2) was generated in the COS7 cellular background as stable clones. In brief, hCTR2 (GI: 4502547) was amplified by PCR using primers encoding terminal restriction sites for subcloning. The 5′-end primers additionally encoded a near Kozak consensus sequence to ensure efficient translation. The fidelity of the DNA encoding the receptor was confirmed by DNA sequencing. The PCR products encoding the receptor were subcloned into a mammalian expression vector containing a neomycin (G418) resistance marker. The mammalian expression vector encoding the receptor was transfected into COS7 cells by a standard liposome transfection method. 48 hours post-transfection, cells were seeded for limited dilution cloning and selected with 1 mg/ml G418 in the culture medium. After 3 weeks, surviving colonies of hCTR2-expressing cells were picked, propagated and tested in the amylin efficacy assay as described in Example 3 below. One hCTR2-expressing clone was chosen for compound profiling.
In vitro activity of test peptides at the hCTR2 and hAMYR3 receptors was assessed by measuring the induction of cAMP following stimulation of the receptor using the AlphaScreen® cAMP Assay kit from Perkin-Elmer.
Briefly, COS7 cells expressing hCTR2 (see Example 2, above) were seeded at 30-40,000 cells per well in 96-well microtiter plates coated with 0.01% poly-L-lysine, and grown for 1 day in culture in 100 μl growth medium [DMEM, 10% FCS, Penicillin (100 IU/ml), Streptomycin (100 μg/ml)]. On the day of analysis, growth medium was removed and the cells were washed once with 200 μl Tyrode buffer [Tyrode's Salts (9.6 g/I), 10 mM HEPES, pH 7.4]. Cells were incubated in 100 μl Tyrode buffer containing increasing concentrations of test peptides, 100 µM IBMX and 0.1% casein for 15 min at 37° C. The reaction was stopped by carefully decanting off the compound/buffer medium and replacing it with lysis/detection buffer (80 μl 0.1% w/v BSA, 5 mM HEPES, 0.3% v/v Tween-20 in deionized water). After incubation at room temperature for 10 min., the cAMP content of the resulting cell lysate was estimated according to the AlphaScreen® cAMP Assay manufacturer's instructions. EC50 values were estimated by computer-aided curve fitting using the 4-parameter logistic (4PL) non-linear model.

Fibrillation pH 4.0 (Ac) [1]	Fibrillation pH 7.0 (His) [1]	Fibrillation pH 7.0 (Phos.) [1]	Normalized purity after 7 days, 40° C., pH 4 ([2]; pH 4, 0.2 mg/ml)	Normalized purity after 7 days, 40° C., pH 6 ([2]; pH 6, 0.2 mg/ml)	Normalized purity after 7 days, 40° C., pH 7.5 ([2]; pH 7.5, 0.2 mg/ml)	Normalized purity after 7 days, 40° C., pH 9 ([2]; pH 9, 0.2 mg/ml)	pEC50 [3]	Compound
FD	FD	FND	A (A = >90%)	A (A = >90%)	A (A = >90%)	B (B = 70-90%)	10.14	CC[C@H](C)[C@@H](C(=O)N[C@@H](CC(C)C)C(=O)N[C@@H](CO)C(=O)N[C@@H](CO)C(=O)N[C@H](C(=O)N[C@@H](CCC(=O)O)C(=O)N[C@H](C(=O)NCC(=O)N[C@@H](CO)C(=O)N[C@@H](CC(N)=O)C(=O)N[C@H](C(=O)N1CCC[C@H]1C(N)=O)[C@@H](C)O)C(C)C)[C@@H](C)O)N(C)C(=O)[C@H](C)NC(=O)CN(C)C(=O)[C@H](Cc1ccccc1)NC(=O)[C@H](CO)NC(=O)[C@H](CO)NC(=O)[C@H](CCCNC(=N)N)NC(=O)[C@H](Cc1c[nH]cn1)NC(=O)[C@H](CC(C)C)NC(=O)[C@H](Cc1ccccc1)NC(=O)[C@H](Cc1c[nH]cn1)NC(=O)[C@H](C)NC(=O)[C@H](CC(C)C)NC(=O)[C@H](CCCNC(=N)N)NC(=O)[C@H](CCC(N)=O)NC(=O)[C@@H](NC(=O)[C@H](C)NC(=O)[C@@H]1CSSC[C@H](NC(=O)[C@H](CCCNC(=N)N)NC(=O)CC[C@H](NC(=O)CCCCCCCCCCCCCCCCCCC(=O)O)C(=O)O)C(=O)N[C@@H](CC(N)=O)C(=O)N[C@@H]([C@@H](C)O)C(=O)N[C@@H](C)C(=O)N[C@@H]([C@@H](C)O)C(=O)N1)[C@@H](C)O [Compound 16, [19CD]-isoGlu-R-C( )-NTAT-C( )-ATQRLAHFLHRSSF-Gly(Me)-A-Ile(Me)-LSSTEVGSNTP-NH2] ({C20 diacid-γGlu}-RCNTATCATQRLAHFLHRSSF[Sar]A[NMeI]LSSTEVGSNTP-NH2; disulfide 2-7)
FND	FD	FD					9.92	CC[C@H](C)[C@@H](C(=O)N[C@@H](CC(C)C)C(=O)N[C@@H](CO)C(=O)N[C@@H](CO)C(=O)N[C@H](C(=O)N[C@@H](CCC(=O)O)C(=O)N[C@H](C(=O)NCC(=O)N[C@@H](CO)C(=O)N[C@@H](CC(N)=O)C(=O)N[C@H](C(=O)N1C[C@H](O)C[C@H]1C(N)=O)[C@@H](C)O)C(C)C)[C@@H](C)O)N(C)C(=O)[C@H](C)NC(=O)CN(C)C(=O)[C@H](Cc1ccccc1)NC(=O)[C@H](CO)NC(=O)[C@H](CO)NC(=O)[C@H](CCCNC(=N)N)NC(=O)[C@@H](NC(=O)[C@H](CC(C)C)NC(=O)[C@H](Cc1ccccc1)NC(=O)[C@H](Cc1c[nH]cn1)NC(=O)[C@H](C)NC(=O)[C@H](CC(C)C)NC(=O)[C@H](CCCNC(=N)N)NC(=O)[C@H](CCC(=O)O)NC(=O)[C@@H](NC(=O)[C@H](C)NC(=O)[C@@H]1CSSC[C@H](NC(=O)[C@H](CCCNC(=N)N)NC(=O)CC[C@H](NC(=O)CCCCCCCCCCCCCCCCCCC(=O)O)C(=O)O)C(=O)NCC(=O)N[C@@H]([C@@H](C)O)C(=O)N[C@@H](C)C(=O)N[C@@H]([C@@H](C)O)C(=O)N1)[C@@H](C)O)[C@@H](C)O [Compound 18, [19CD]-isoGlu-R-C( )-GTAT-C( )-ATERLAHFLTRSSF-Gly(Me)-A-Ile(Me)-LSSTEVGSNT-Hyp-NH2] ({C20 diacid-γGlu}-RCGTATCATERLAHFLTRSSF[Sar]A[NMeI]LSSTEVGSNT[Hyp]-NH2; disulfide 2-7)
							9.82	CC[C@H](C)[C@@H](C(=O)N[C@@H](CC(C)C)C(=O)N[C@@H](CO)C(=O)N[C@@H](CO)C(=O)N[C@H](C(=O)N[C@@H](CCC(=O)O)C(=O)N[C@H](C(=O)NCC(=O)N[C@@H](CO)C(=O)N[C@@H](CO)C(=O)N[C@H](C(=O)N1CCC[C@H]1C(N)=O)[C@@H](C)O)C(C)C)[C@@H](C)O)N(C)C(=O)[C@H](C)NC(=O)CN(C)C(=O)[C@H](Cc1ccccc1)NC(=O)[C@H](CO)NC(=O)[C@H](CO)NC(=O)[C@H](CCCNC(=N)N)NC(=O)[C@H](CCC(=O)O)NC(=O)[C@H](CC(C)C)NC(=O)[C@H](Cc1ccccc1)NC(=O)[C@H](Cc1c[nH]cn1)NC(=O)[C@H](C)NC(=O)[C@H](CC(C)C)NC(=O)[C@H](CCCNC(=N)N)NC(=O)[C@H](CCC(N)=O)NC(=O)[C@@H](NC(=O)[C@H](C)NC(=O)[C@@H]1CSSC[C@H](NC(=O)[C@H](CCCNC(=N)N)NC(=O)CC[C@H](NC(=O)CCCCCCCCCCCCCCCCCCC(=O)O)C(=O)O)C(=O)N[C@@H](CC(N)=O)C(=O)N[C@@H]([C@@H](C)O)C(=O)N[C@@H](C)C(=O)N[C@@H]([C@@H](C)O)C(=O)N1)[C@@H](C)O [Compound 84, [19CD]-isoGlu-R-C( )-NTAT-C( )-ATQRLAHFLERSSF-Gly(Me)-A-Ile(Me)-LSSTEVGSSTP-NH2] ({C20 diacid-γGlu}-RCNTATCATQRLAHFLERSSF[Sar]A[NMeI]LSSTEVGSSTP-NH2; disulfide 2-7)
